In assay [1] the test system is HT1080 (human fibrosarcoma). Put plainly: SRB Cell Cytotoxicity Assay, HT1080. The assay is classed as cell-based. The note with it: HT-1080, HT1080, 72h treatment, read-out: Concentration (µM) of test compounds at which the cell growth is inhibited by 50 %. HT1080. From the text: (§1) SRB Cell Cytotoxicity Assay is an assay based upon the quantitative staining of cellular proteins by sulforhodamine B (SRB). This assay can be used for high-throughput drug screening (Vichai & Kirkitara, Nature Protocol. 2006, 1, 112). Sulforhodamine B is an anionic aminoxanthene dye that forms an electrostatic complex with the basic amino acid residues of proteins under moderately acid conditions, which provides a sensitive linear response.
(§2) To assess a putative antiproliferative activity of the selected compounds, HT1080 (human fibrosarcoma), U87MG (human glioblastoma astrocytoma) and U2OS (human osteosarcoma) cell lines were treated for 72h, in triplicate, with increasing concentrations of heparanase inhibitors. Inhibition of cell proliferation was then measured by the classical colorimetric SRB Cell Cytotoxicity assay. Absorbance was measured by spectrophotometer at a wavelength of 510 nm and cell proliferation was determined as percent with respect to control cells (cells treated with the vehicle alone). EC50 values were then determined by GraphPad Prism.

Assay [2] has as its system U87MG (human glioblastoma astrocytoma). Put plainly: SRB Cell Cytotoxicity Assay, U87MG. It counts as cell-based. The following applies: U-87 MG, 72h treatment, read-out: Concentration (µM) of test compounds at which the cell growth is inhibited by 50 %. U87MG.
Source text: as §1, §2

For assay [3], the system named is U2OS (human osteosarcoma). Put plainly: SRB Cell Cytotoxicity Assay, U2OS. The assay is classed as cell-based. The following applies: 72h treatment, read-out: Concentration (µM) of test compounds at which the cell growth is inhibited by 50 %. U2OS.
Source text: as §1, §2

Assay [4] concerns HT1080 (human fibrosarcoma). Put plainly: Matrigel cell invasion assay, HT1080. It counts as cell-based. The note with it: HT-1080, HT1080, test compound at 2.5 µM, 24 h pre-treatment, 24 h invasion. As for the experimental part: (§3) Heparanase inhibitors were then evaluated for their activity on the invasive potential of HT1080 (human fibrosarcoma), U87MG (human glioblastoma astrocytoma) and U2OS (human osteosarcoma) human cell lines, using the Matrigel cell invasion assay which allows to assess the cell invasion ability of malignant and normal cells.
(§4) Invasion assay was performed using BioCoat cell culture inserts (BioCoat 8.0µm PET Membrane 24 Well Permeable Supports, Corning). Filters were coated with 100 µl of 300 µg/ml Matrigel dissolved in coating buffer (0.01 M Tris pH 8.0, 0.7% NaCl) (Becton-Dickinson Sciences). DMEM (Dulbecco's Modified Eagle's Medium) containing 5% FBS was added to the lower chambers. Cells were pre-treated with heparanase inhibitors for 24 h, detached and added to the upper chambers in media containing the inhibitors. Cells were allowed to invade for 24 h at 37°C in a CO2 incubator and then unmigrated cells were removed from the upper chamber with a cotton swab. The invading cells were fixed, stained with 0.1% crystal violet for 10 min at room temperature, photographed and counted under inverted microscope.
(§5) Test compounds were analyzed at fixed concentration (2.5 µM) for several fields, in duplicates. Activity of test compounds was compared to the reference compound. Activity of most interesting compound was confirmed in a second cell invasion assay. Data were expressed as the percent invasion with respect to cell migration through uncoated insert membrane (see Table 3 below)
(§6) Table 3. […] In Invasion assay, data were expressed as the percent invasion (range) with respect to cell migration through uncoated insert membrane. In Adhesion assay, data were expressed as the percent of adhesion with respect to the control (100%). • Legend • ++: 50-90% • + : < 50% • - : Not Active

Assay [5] has as its system U87MG (human glioblastoma astrocytoma). Put plainly: Matrigel cell invasion assay, U87MG. The assay is classed as cell-based. The note with it: Homo sapiens, U-87 MG, test compound at 2.5 µM, 24 h pre-treatment, 24 h invasion. As for the experimental part:
as §3, §4, §5, §6

The test system of assay [6] is U2OS (human osteosarcoma). Put plainly: Matrigel cell invasion assay, U2OS. It counts as cell-based. The note with it: Homo sapiens, test compound at 2.5 µM, 24 h pre-treatment, 24 h invasion. How it is done: as §3, §4, §5, §6
Assay [7] has as its system HT1080 (human fibrosarcoma). Put plainly: Cell adhesion assay on matrigel coated wells, HT1080. The assay is classed as cell-based. The note with it: HT1080, test compound at 2.5 µM; percent of adhesion with respect to the control (100%). As for the experimental part:
Cell surface, non-integrin molecules such as heparan sulfate proteoglycans (HSPGs) may be involved in the regulation of early adhesive stages of cell-ECM interactions. A cell adhesion assay has been employed to determine if the newly designed heparanase inhibitors were able to interfere with adhesion properties of cancer cells.
HT1080 (human fibrosarcoma) and U87MG (human glioblastoma astrocytoma) cells were treated for 18-20 h with test compounds in complete medium supplemented with 10% FCS. Then cells were collected, washed in complete medium, and added to matrigel coated wells in triplicate, at previously identified optimal seeding density, and incubated at 37 °C in complete medium for times ranging from 15 minutes to 4h, according to the cell line. After incubation, the wells were washed three times with serum-free medium and the remaining firmly attached cells were stained with crystal-violet 0.1%. Optical density was measured at 560 nm by Victor 3 (Perkin-Elmer) plate analyzer. Each experiment was repeated three times.
as §6

A further assay relates to FGF-2. Put plainly: Real-Time quantitative PCR of FGF-2 mRNA in HT1080 cells. The assay is classed as cell-based, human. The note with it: 24 h. As for the experimental part: (§7) To evaluate the effect of heparanase inhibitors on the tumor transcription of genes encoding for proangiogenic factors, such as FGF1/2, VEGF, MMP-9, HSPE-1, the relative mRNA levels were analyzed by quantitative Real-Time Quantitative PCR. To perform the assay, HT1080 (human fibrosarcoma) cells were cultured in complete medium containing 10%FCS (fetal calf serum). Cells were plated in 24-well plates and treated at fixed concentration (i.e., highest non-toxic concentration) of test compounds. After 24 h, cells were detached, collected and total RNA extracted by RNeasy Mini Kit (QIAGEN). Following reverse transcription step, FGF1/2, VEGF, MMP-9, HSPE-1 mRNA levels, were quantified by qPCR using the advanced Universal SYBR Green Supermix (Bio Rad) and ABI PRISM 7900HT Thermal Cycler System (Perkin Elmer), according to the manufacturer's instructions. Appropriate no-RT and non-template controls were included in each 96-well PCR reaction, and dissociation analysis was performed at the end of each run to confirm the specificity of the reaction. Relative levels of RNA were calculated using the ddCt method. Standard curve and sample data were run in duplicate.
(§8) In the Table 5 a mean value is reported.

The next assay has as its system VEGF. Put plainly: Real-Time quantitative PCR of VEGF mRNA in HT1080 cells. It counts as cell-based, human. The note with it: 24 h. How it is done: as §7, §8
The subject of another assay is MMP-9. Put plainly: Real-Time quantitative PCR of MMP-9 mRNA in HT1080 cells. The assay is classed as cell-based, human. The following applies: 24 h. How it is done: as §7, §8
A further assay deals with HPSE-1. Put plainly: Real-Time quantitative PCR of HPSE-1 mRNA in HT1080 cells. The following applies: 24 h. It counts as cell-based, human. As for the experimental part:
as §7, §8

Each structure is given as a SMILES string.

The source of these data is patent EP3381907A1, “SYMMETRICAL 2-AMINOPHENYL-BENZAZOLYL-5-ACETATE COMPOUNDS AND THEIR USE AS ANTI-HEPARANASE” (Leadiant Biosciences SA, priority 2017, dated 2018).

Regarding `O=C(O)Cc1ccc2oc(-c3ccc(NC(=O)Nc4ccc(-c5nc6cc(CC(=O)O)ccc6o5)cc4F)c(F)c3)nc2c1` [Compound 20, 2,2'-(((Carbonylbis(azanediyl))bis(3-fluoro-4,1-phenylene))bis(benzo[d]oxazole-2,5-diyl))diacetic acid], the EC50 in assay [1], in assay [2] and in assay [3] was > 10 µM throughout. Moreover, the figures for the inhibition at 2.5 µM in assay [4], in assay [5] and in assay [6] were < 50%, 50 to 90% and 50 to 90%, respectively. The “Adhesion Assay (%) HT1080” value in assay [7] is recorded as 83.25%. Besides, in the assay on FGF-2 (2.5 uM), the “Gene Expression (% mRNA vs. control) FGF-2” value is listed as “∼ 88%”. Besides, the “Gene Expression (% mRNA vs. control) VEGF” value with VEGF (2.5 uM) is listed as “∼ 72%”. The “Gene Expression (% mRNA vs. control) MMP-9” value in the assay with MMP-9 (2.5 uM) is listed as “∼ 70%”. Moreover, in the assay on HPSE-1 (2.5 uM), the “Gene Expression (% mRNA vs. control) HPSE-1” value is “∼ 100%”.

As to `O=C(O)CNC(=O)Cc1ccc2oc(-c3ccc(NC(=O)Nc4ccc(-c5nc6cc(CC(=O)NCC(=O)O)ccc6o5)cc4F)c(F)c3)nc2c1` [Compound 25, 2,2'-((2,2'-(((Carbonylbis(azanediyl))bis(3-fluoro-4,1-phenylene))bis(benzo[d]oxazole-2,5-diyl))bis(acetyl))bis(azanediyl))diacetic acid], the EC50 in [1], in [2] and in [3] was > 10 µM in each case. Besides, the results for the inhibition at 2.5 µM in assay [4], in [5] and in [6] were 50 to 90%, 50 to 90% and < 50%, respectively. The “Adhesion Assay (%) HT1080” value in [7] is given as 81.60%. The “Gene Expression (% mRNA vs. control) FGF-2” value with FGF-2 (10.0 uM) was “∼ 68%”. The “Gene Expression (% mRNA vs. control) VEGF” value in the assay on VEGF (10.0 uM) was “∼ 63%”. The “Gene Expression (% mRNA vs. control) MMP-9” value in the assay with MMP-9 (10.0 uM) is recorded as “∼ 65%”. Further, in the assay with HPSE-1 (10.0 uM), the “Gene Expression (% mRNA vs. control) HPSE-1” value was “∼ 62%”.
